# Literature values as cited in US20060292651A1, “Protein labelling with oº-alkylguanine-dna alkyltrnsferase” (priority 2002, published 2006).
# Molecular target: T1, hAGT (Homo sapiens, UniProt P16455)
# T1 sequence (P16455 1-207): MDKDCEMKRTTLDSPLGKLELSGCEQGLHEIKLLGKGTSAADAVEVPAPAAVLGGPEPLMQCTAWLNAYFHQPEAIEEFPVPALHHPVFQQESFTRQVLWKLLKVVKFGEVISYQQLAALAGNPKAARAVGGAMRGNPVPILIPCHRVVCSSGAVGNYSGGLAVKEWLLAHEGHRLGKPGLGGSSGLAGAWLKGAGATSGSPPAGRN
# Conditions: reaction with hAGT
smiles,measurement,value
Nc1nc(OCc2ccccc2)c2nc[nH]c2n1 [O^6-benzyl-guanine],second order rate constant,approximately 10^3 sec^−1 M^−1
